In patent publication US11447496B2, “Nitrogen-containing fused heterocyclic ring compound and application thereof” (GUANGZHOU CHINARAY OPTOELECTRONIC MATERIALS LTD., priority 2016, dated 2022):
≈ marks a conversion by molar mass, not a printed value. Where two headings read alike, the source gives them in different places.

Assay: Solubility in toluene, xylene and chloroform at 25° C.
Format: physicochemical
Settings: organic solvent or mixture
Protocol: 1. A solubility (mg/mL) of compounds of Examples 1 to 11 and CBP, i.e., 4,4′-bis(9H-carbazol-9-yl)biphenyl, in toluene, xylene and chloroform was measured. The test temperature was 25° C.

[1] = chloroform, in chloroform, read-out: Solubility Chloroform
[2] = chloroform, in chloroform, read-out: solubility in chloroform (text summary of Table 1)
[3] = toluene, in toluene, read-out: Solubility Toluene
[4] = toluene, in toluene, read-out: solubility in toluene (text summary of Table 1)
[5] = xylene, in xylene, read-out: Solubility Xylene
[6] = xylene, in xylene, read-out: solubility in xylene (text summary of Table 1)

solubility [1] | solubility [2] | solubility [3] | solubility [4] | solubility [5] | solubility [6] | Structure (SMILES)
434 mg/mL (≈ 520 mM) | > 300 mg/mL | 285 mg/mL (≈ 342 mM) | > 200 mg/mL | 354 mg/mL (≈ 424 mM) | > 240 mg/mL | c1ccc(-c2nc(-c3ccc4c(c3)C3(c5ccccc5Sc5ccccc53)c3ccccc3-4)nc(-n3c4ccccc4c4ccc5c6ccccc6n(-c6ccccc6)c5c43)n2)cc1 [Example 9]
294 mg/mL (≈ 367 mM) | > 300 mg/mL | 205 mg/mL (≈ 256 mM) | > 200 mg/mL | 256 mg/mL (≈ 319 mM) | > 240 mg/mL | c1ccc(-c2nc(-c3cccc4c3-c3ccccc3C43c4ccccc4-c4ccccc43)nc(-n3c4ccccc4c4cc5c6ccccc6n(-c6ccccc6)c5cc43)n2)cc1 [Example 2]
374 mg/mL (≈ 466 mM) | > 300 mg/mL | 268 mg/mL (≈ 334 mM) | > 200 mg/mL | 313 mg/mL (≈ 390 mM) | > 240 mg/mL | [2H]c1cc2c3ccccc3n(-c3nc(-c4ccccc4)cc(-c4ccc5c(c4)-c4ccccc4C54c5ccccc5-c5ccccc54)n3)c2c2c3ccccc3n(-c3ccccc3)c12 [Example 11]
410 mg/mL (≈ 511 mM) | > 300 mg/mL | 250 mg/mL (≈ 312 mM) | > 200 mg/mL | 320 mg/mL (≈ 399 mM) | > 240 mg/mL | c1ccc(-c2nc(-c3cccc4c3-c3ccccc3C43c4ccccc4-c4ccccc43)nc(-n3c4ccccc4c4ccc5c6ccccc6n(-c6ccccc6)c5c43)n2)cc1 [Example 1]
185 mg/mL (≈ 382 mM) |  | 130 mg/mL (≈ 268 mM) |  | 153 mg/mL (≈ 316 mM) |  | c1ccc2c(c1)c1ccccc1n2-c1ccc(-c2ccc(-n3c4ccccc4c4ccccc43)cc2)cc1 [CBP, 4,4′-bis(9H-carbazol-9-yl)biphenyl, reference compound]
344 mg/mL (≈ 385 mM) | > 300 mg/mL | 220 mg/mL (≈ 246 mM) | > 200 mg/mL | 284 mg/mL (≈ 318 mM) | > 240 mg/mL | c1ccc(-c2nc(-c3ccc4c(c3)C3(c5ccccc5-4)c4ccccc4N(c4ccccc4)c4ccccc43)nc(-n3c4ccccc4c4cc5c6ccccc6n(-c6ccccc6)c5cc43)n2)cc1 [Example 10]

Further lines, the compound ahead of its results:

Structure (SMILES) | solubility [1] | solubility [2] | solubility [3] | solubility [4] | solubility [5] | solubility [6]
CC1(C)c2ccccc2N(c2ccccc2)c2cc3c(cc21)N(c1nc(-c2ccccc2)cc(-c2cccc4c2-c2ccccc2C42c4ccccc4-c4ccccc42)n1)c1ccccc1C3(C)C [Example 7] | 473 mg/mL (≈ 534 mM) | > 300 mg/mL | 362 mg/mL (≈ 409 mM) | > 200 mg/mL | 405 mg/mL (≈ 458 mM) | > 240 mg/mL
CC1(C)c2ccccc2N(c2nc(-c3ccccc3)nc(-c3cccc4c3-c3ccccc3C43c4ccccc4-c4ccccc43)n2)c2ccc3c4ccccc4n(-c4ccccc4)c3c21 [Example 6] | 460 mg/mL (≈ 545 mM) | > 300 mg/mL | 350 mg/mL (≈ 415 mM) | > 200 mg/mL | 392 mg/mL (≈ 464 mM) | > 240 mg/mL
c1ccc(-c2cc(-c3ccc4c(c3)-c3ccccc3C43c4ccccc4-c4ccccc43)nc(N3c4ccccc4Oc4ccc5c(c43)c3ccccc3n5-c3ccccc3)n2)cc1 [Example 4] | 430 mg/mL (≈ 526 mM) | > 300 mg/mL | 305 mg/mL (≈ 373 mM) | > 200 mg/mL | 362 mg/mL (≈ 443 mM) | > 240 mg/mL
CC1(C)c2ccccc2N(c2nc(-c3ccccc3)nc(-c3ccc4c(c3)-c3ccccc3C43c4ccccc4-c4ccccc43)n2)c2cc3c(cc21)c1ccccc1n3-c1ccccc1 [Example 5] | 445 mg/mL (≈ 527 mM) | > 300 mg/mL | 330 mg/mL (≈ 391 mM) | > 200 mg/mL | 376 mg/mL (≈ 445 mM) | > 240 mg/mL
c1ccc(-c2nc(-c3cccc4c3-c3ccccc3C43c4ccccc4-c4ccccc43)nc(-n3c4ccccc4c4c5c6ccccc6n(-c6ccccc6)c5ccc43)n2)cc1 [Example 3] | 285 mg/mL (≈ 355 mM) | > 300 mg/mL | 200 mg/mL (≈ 249 mM) | > 200 mg/mL | 243 mg/mL (≈ 303 mM) | > 240 mg/mL
CC1(C)c2ccccc2-c2ccc3c4ccccc4n(-c4nc(-c5ccccc5)nc(-c5cccc6c5-c5ccccc5C65c6ccccc6-c6ccccc65)n4)c3c21 [Example 8] | 510 mg/mL (≈ 677 mM) | > 300 mg/mL | 400 mg/mL (≈ 531 mM) | > 200 mg/mL | 452 mg/mL (≈ 600 mM) | > 240 mg/mL
